Laboratory results: patent publication US6984655B1, “Photodynamic therapy for selectively closing neovasa in eyeground tissue” (Meiji Seika Kaisha, Ltd., priority 2000, dated 2006)

Experiments:
[1] = test system: vascular walls of retinal normal vascular vessels and choroidal neovascular vessels (CNV); test: infrared fluorescence fundus angiography after co-injection of ICG and NPe6 (Test Example 5); assay type: in vivo, monkeys of the genus Macaca; details: ICG 0.5 mg/kg co-injected with NPe6 0.5 mg/kg
From the text: The 664 nm-laser light as irradiated was irradiated at an irradiance of 0.68 W/cm^2 for 300 second so that the fluence was of 204 J/cm^2.

[2] = test system: vascular walls of retinal normal vascular vessels and choroidal neovascular vessels (CNV); test: infrared fluorescence fundus angiography of ICG (790 nm excitation) in monkeys having experimental CNV; assay type: in vivo, monkeys of the genus Macaca; details: for infrared fluorescence in CNV / infrared fluorescence in retinal normal vascular vessels: ICG 0.5 mg/kg iv
From the text: In these experiments, the time-dependent changes in the concentrations of ICG having distributed and remaining in the vascular walls of the retinal normal vascular vessels and in the vascular walls of the choroidal neovascular vessels (CNV) in the ocular fundus of the monkeys were examined by a process wherein a beam of laser light containing a light of 790 nm-wavelength (as emitted from a semiconductor type laser generator) was used as an excitation light, and wherein the changes in the intensity of the infrared fluorescence emitted from the ICG as excited within said vascular walls were continuously recorded by photographs by means of an infrared light fundus camera apparatus (of modified TCR 50-IA type, manufactured by Topcon Co., Japan) for the infrared fluorescence fundus angiography for diagnosing the ocular fundus, and wherein the photographed images of the fundus were observed visually.
In the same manner as in the above Test Example 1, the neovasculature lesions comprising the experimental choroidal neovascular vessels (CNV) were produced in the ocular fundi of monkeys of the genus Macaca, according to the modified Ryan's method.
An aqueous solution of ICG dissolved in distilled water for the injections at a concentration of 5.0 mg/ml of ICG was intravenously injected at a dose of ICG of 0.5 mg/kg at a vein in the lower limbs of the monkeys having the neovasculature lesions in the retina of the eye.
Immediately after the time of the intravenous injection of ICG, the ocular fundi of the monkeys were continuously observed under irradiation of the beam of laser light containing a light of 790 nm-wavelength by means of an infrared light camera apparatus (of a modified TCR 50-IA type, manufactured by Topcon Co.) for infrared fluorescence fundus the angiography for diagnosing the ocular fundus.
To these test monkeys was intravenously injected ICG at a dose of 1 mg/kg in the same way as in Test Example 3. Immediately after the time of the intravenous injection of ICG, the ocular fundi of the monkeys were continuously observed by means of an infrared light fundus camera apparatus (of modified TCR 50 type, manufactured by Topcon Co., Ltd.) for the infrared fluorescence fundus angiography for diagnosing the ocular fundus. The observation with the fundus camera was made under irradiation of the ocular fundi with the laser light containing a light of 790 nm-wavelength. There was recorded the time point at which the infrared fluorescence of ICG was eliminated entirely from the retinal normal vascular vessels.

[3] = test system: experimental choroidal neovascular vessels (CNV); details: optical microscope, pathological examination
From the text: In the experiments of this Test Example 2, there were used 31 neovasculature lesions chosen from among the neovasculature lesions which comprised the experimental choroidal neovascular vessels (CNV) as produced in the ocular fundi of the monkeys of the genus Macaca by the modified Ryan's method set out in the Test Example 1 above.
The 664 nm-laser light was irradiated for 300 seconds at a fluence of 204 J/cm^2.
The laser light was irradiated for 60 to 300 seconds at different fluences.
The 664 nm-laser light was irradiated at different fluences for 60 seconds or for 10 seconds. […]
After the treatment with the irradiation of 664 nm-laser light was terminated, the test monkeys having the neovasculature lesions, either treated or untreated, were fed for 1 week under routine feeding conditions. After the feeding for one week, the effects of the above treatments were judged by a fluorescence fundus angiography with fluorescein and by a fluorescence fundus angiography with indocyanine green (ICG). […] For the fluorescence fundus angiography with ICG, the ocular fundi of the monkeys were observed and diagnosed by means of SLO or by means of an infrared light fundus camera apparatus for the infrared ocular fundus angiography, after the intravenous injection of ICG. […]

[4] = test system: ocular fundus tissue with choroidal neovascular vessels (CNV); test: fluorescence microscopy of cross-section samples of enucleated eyeballs; assay type: in vivo, monkeys of the genus Macaca; details: 20 mg/kg iv, eyeballs enucleated 65 to 70 minutes after injection, excitation 380 to 420 nm
Procedure: These cut pieces of the eyeballs were frozen in a bath of liquid nitrogen. Cross-section samples each having a thickness of 5 μm were prepared from the ocular fundus tissue region of the frozen pieces of the eyeballs.

[5] = test system: experimental choroidal neovascular vessels (CNV); test: PDT with NPe6 timed by prior ICG angiography (Test Example 4)
Procedure: To these test monkeys was intravenously injected ICG at a dose of 1 mg/kg in the same way as in Test Example 3. Immediately after the time of the intravenous injection of ICG, the ocular fundi of the monkeys were continuously observed by means of an infrared light fundus camera apparatus (of modified TCR 50 type, manufactured by Topcon Co., Ltd.) for the infrared fluorescence fundus angiography for diagnosing the ocular fundus. The observation with the fundus camera was made under irradiation of the ocular fundi with the laser light containing a light of 790 nm-wavelength. There was recorded the time point at which the infrared fluorescence of ICG was eliminated entirely from the retinal normal vascular vessels. The time-gap which was extended between the aforesaid time point as recorded for the entire elimination of the infrared fluorescence of IGC and the time of the intravenous injection of ICG was calculated in a unit of “minutes” or “second”, whereby it was estimated that said time-gap was 30 minutes. • (b) Time was allowed to pass until the infrared fluorescence of ICG was eliminated entirely from the neovasculature lesions in the ocular fundi of the test monkeys. […] The 664 nm-laser light as irradiated was irradiated at an irradiance of 0.57 W/cm2 for 180 seconds so that the fluence was of 102.6 J/cm^2. […]

CD-1 (male) mice = test: acute toxicity test (LD50); assay type: in vivo
[6] = test system: vascular walls of retinal normal vascular vessels and choroidal neovascular vessels (CNV); test: fluorescence fundus angiography of NPe6 red fluorescence (488 nm excitation) in monkeys having experimental CNV; assay type: in vivo, monkeys of the genus Macaca; details: for time point at which red fluorescence was substantially entirely eliminated from retinal normal vascular vessels while CNV lesions continued to emit: Test Example 2
From the text: The detailed procedures of the above experiments are as follows. Thus, a beam of a laser light of 647 nm wavelenght as emitted from a krypton laser generator [Coherent Medical Laser generator, manufactured by Novua Omni Co.; having an output of 500 to 900 mW] was irradiated as a laser-irradiating spot of a diameter of 50 μm onto the ocular fundi of 8 mature monkeys of the genus Macaca (of body weights of 3.5 kg to 6.0 kg) for 0.1 seconds, according to a modification of the Ryan's method [Arch. Ophthalmol., vol 100; pp. 1804–1809 (1982)]. It is said that the resulting damage in the Bruch's membrane, which were incurred by the irradiation of the 647 nm laser light, is very effective for the incidence of ocular neovascular vessels. Thereby, there were induced the experimental choroidal neovascular vessels (abbreviated as CNV). The induced CNV are the neovascular vessels as branched from the choroidal normal vascular vessels in the ocular fundus. Such CNV have infiltrated in the subretinal space, namely the space between the sensory retina and choroids, to involve the occurrence of exudation, bleeding and retinal detachment. The formation of the neovasculature lesions comprising the CNV was confirmed by a process which comprised intravenously injecting fluorescein or indocyanine green to the so treated monkeys and subsequently carrying out the diagnosis method according to a fluorescence fundus angiography of the ocular fundus.
In the course of said irradiation of 488 nm laser light beam for 10 minutes, the images of the red fluorescence as emitted in the ocular fundus were recorded by photography on a video tape by means of a high-sensitivity television fundus camera apparatus. Thereafter, at intervals of 10 minutes, a beam of 488 nm laser light was repeatedly irradiated to the ocular fundus each for about one minute. At each of the irradiations of the 488 nm laser light beam, the images of the red fluorescence emitted from the vascular vessels of the ocular fundus were recorded on the video tape. […] The images of the fluorescence emitted from the ocular fundus vascular vessels were then reproduced from the recording video tape for the purpose of observation.
During this 10 minutes-irradiation of the 488 nm-laser light to the ocular fundi, the images of the red fluorescence emitted from the ocular fundi were recorded by photography on a video tape by means of a high-sensitivity television fundus camera.
During this irradiation of the 488 nm-laser light, the images of the red fluorescences emitted from the retinal normal vascular vessels and from the choroidal neovascular vessels were observed by an apparatus for the fluorescence ocular fundus angiography of the ocular fundus (namely, an infrared light fundus camera).

[7] = about 7 to 8 minutes after injection
[8] = 20 minutes after administration
[9] = 0.5 mg/kg iv, 20 minutes after injection
[10] = 1.0 mg/kg iv, 30 minutes after injection
[11] = 20 mg/kg iv, 7.5 minutes after injection
[12] = 20 mg/kg iv, 20 minutes after injection
[13] = 20 mg/kg iv, 60 minutes after injection

## CC1(C)C(/C=C/C=C/C=C/C=C2\N(CCCCS(=O)(=O)O)c3ccc4ccccc4c3C2(C)C)=[N+](CCCCS(=O)(=O)[O-])c2ccc3ccccc3c21 [ICG, indocyanine green]
[1]; 20 minutes after injection
  infrared fluorescence of ICG in retinal normal vascular vessels: decreased to a poor intensity
  infrared fluorescence of ICG in vascular walls of CNV: retained at a prominent and apreciable intensity
[1]; [7]
  infrared fluorescence of ICG in retinal normal vascular vessels: observed at a prominent and appreciable intensity
[2]; [8]
  infrared fluorescence in CNV: increased to a prominent and appreciable intensity
  infrared fluorescence in retinal normal vascular vessels: had decreased
[2]; [7]
  infrared fluorescence in CNV: a slight but appreciable intensity
  infrared fluorescence in retinal normal vascular vessels: observed at a prominent and appreciable intensity
[2]; ICG 1 mg/kg iv
  time-gap between intravenous injection and entire elimination of infrared fluorescence from retinal normal vascular vessels: 30 min

## C=Cc1c(C)c2cc3nc(c(CC(=O)N[C@@H](CC(=O)[O-])C(=O)[O-])c4[nH]c(cc5nc(cc1[nH]2)C(C)=C5CC)c(C)c4C(=O)[O-])[C@@H](CCC(=O)[O-])[C@@H]3C.[Na+].[Na+].[Na+].[Na+] [NPe6, mono-L-aspartyl chlorin e6 tetra-sodium salt]
[3]
  state of retinal and choroidal normal vascular vessels adjacent to the occluded CNV: remaining intact or nearly intact
[4]
  red fluorescence at CNV in cross-section samples: observed confirmably at a significant intensity
  red fluorescence at retinal normal vascular vessels in cross-section samples: only a very slight degree of the red fluorescence
  red fluorescence in cross-section samples of retinal parenchymal region: almost not observable
[5]; NPe6 1 mg/kg iv after ICG cleared, irradiation started 30 min, 0.57 W/cm2, 180 s, 102.6 J/cm^2, 3 lesions treated, judged after one week
  number of treated neovasculature lesions whose CNV were successfully occluded: 3
[5]; NPe6 1 mg/kg iv, 664 nm-laser 102.6 J/cm^2, judged after one week
  state of adjacent retinal normal vascular vessels, retinal parenchymal tissue and choroidal normal vascular vessels: could remain intact
CD-1 (male) mice
  LD50: 164 mg/kg
[6]; [9]
  red fluorescence in CNV: confirmably observed at a slight but appreciable intensity
  red fluorescence in retinal normal vascular vessels: substantially entirely been eliminated and disappeared
[6]; 0.5 mg/kg iv
  time point at which red fluorescence was substantially entirely eliminated from retinal normal vascular vessels while CNV lesions continued to emit: 20 min
[6]; [10]
  red fluorescence in CNV: confirmed at a significant and appreciable intensity
  red fluorescence in retinal normal vascular vessels: substantially entirely been eliminated
[6]; 1 mg/kg iv
  time point at which red fluorescence was substantially entirely eliminated from retinal normal vascular vessels while CNV lesions continued to emit: 30 min
[6]; 2 mg/kg iv
  time point at which red fluorescence was substantially entirely eliminated from retinal normal vascular vessels while CNV lesions continued to emit: 60 min
[6]; 10 mg/kg iv
  time point at which red fluorescence was substantially entirely eliminated from retinal normal vascular vessels while CNV lesions continued to emit: 60 min
[6]; [11]
  red fluorescence in vascular walls of CNV: observable slightly but detectable at its weak intensity
  red fluorescence in vascular walls of retinal normal vascular vessels: appreciably observable at its prominent intensity
[6]; [12]
  red fluorescence in CNV: remain at a higher and prominently observable intensity
  red fluorescence in retinal normal vascular vessels: decreased to a lower and hardly detectable intensity
[6]; [13]
  red fluorescence in CNV: observed at a high and prominent intensity
  red fluorescence in retinal normal vascular vessels: never observable
[6]; monkeys with experimental CNV
  time of peak NPe6 concentration in vascular walls of CNV after intravenous injection: about 20 minutes
[6]; monkeys, intravenous
  permeation into normal parenchymal tissue of the ocular retina: never permeate
